Assay results: patent US20240368135A1 (VERTEX PHARMACEUTICALS INCORPORATED, priority 2021, published 2024)
pIC50: −log10 of the molar value.

Each molecule was assayed against human NaV 1.8 (Homo sapiens, UniProt Q9Y5Y9) (assay: E-VIPR assay detecting and measuring NaV inhibition properties). Details: HEK cells expressing truncated human NaV 1.8; no human serum; read-out: IC50 in the E-VIPR Assay.
Sequence of human NaV 1.8 (Q9Y5Y9 126-399 limits assumed): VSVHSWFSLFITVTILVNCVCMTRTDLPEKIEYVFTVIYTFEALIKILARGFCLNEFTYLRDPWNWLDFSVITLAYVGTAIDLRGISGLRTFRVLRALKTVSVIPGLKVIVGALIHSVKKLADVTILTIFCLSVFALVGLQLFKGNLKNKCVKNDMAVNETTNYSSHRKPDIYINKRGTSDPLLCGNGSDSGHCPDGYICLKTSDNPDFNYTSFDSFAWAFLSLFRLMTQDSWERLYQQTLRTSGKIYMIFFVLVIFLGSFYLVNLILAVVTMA
Sequence of human NaV 1.8 (Q9Y5Y9 660-890 limits assumed): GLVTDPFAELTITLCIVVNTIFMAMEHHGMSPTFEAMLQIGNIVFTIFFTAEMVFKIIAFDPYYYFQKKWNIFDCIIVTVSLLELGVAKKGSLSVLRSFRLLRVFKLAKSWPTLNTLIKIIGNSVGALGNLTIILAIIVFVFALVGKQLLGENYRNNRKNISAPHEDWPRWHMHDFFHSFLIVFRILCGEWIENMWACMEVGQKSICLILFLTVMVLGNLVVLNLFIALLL
Sequence of human NaV 1.8 (Q9Y5Y9 1148-1722 limits assumed): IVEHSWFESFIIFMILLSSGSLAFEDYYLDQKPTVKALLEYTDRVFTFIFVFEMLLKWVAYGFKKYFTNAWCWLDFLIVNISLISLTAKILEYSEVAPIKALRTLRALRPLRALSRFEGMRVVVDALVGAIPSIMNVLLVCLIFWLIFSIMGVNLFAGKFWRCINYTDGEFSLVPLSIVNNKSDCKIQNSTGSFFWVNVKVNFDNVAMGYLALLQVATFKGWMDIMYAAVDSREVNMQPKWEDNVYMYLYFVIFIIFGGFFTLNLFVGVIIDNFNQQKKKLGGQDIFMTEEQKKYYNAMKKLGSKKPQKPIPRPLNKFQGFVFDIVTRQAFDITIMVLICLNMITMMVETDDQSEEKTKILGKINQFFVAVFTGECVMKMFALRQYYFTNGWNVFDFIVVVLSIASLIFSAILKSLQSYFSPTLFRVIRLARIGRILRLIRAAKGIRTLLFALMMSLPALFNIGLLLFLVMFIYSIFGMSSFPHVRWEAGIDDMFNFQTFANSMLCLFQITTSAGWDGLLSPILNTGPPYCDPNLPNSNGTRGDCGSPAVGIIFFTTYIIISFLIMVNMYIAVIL
Format: cell-based
Summary of the method: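 HEK cells expressing truncated, fully active human NaV1.8, with KIR2.1 BacMam co-transduction, were loaded with CC2-DMPE/DiSBAC6(3) voltage-sensing dyes for 20 min at room temperature. Compounds were tested in 11-point 3-fold dilutions (300 nM top final), optionally with 25% human serum, under electrical stimulation with FRET read-out.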
Molecule `COc1c([C@H]2[C@H](C(=O)Nc3ccnc(C4(N(C)C)COC4)c3)O[C@@](C)(C(F)(F)F)[C@H]2C)ccc(F)c1F` [Compound 362, (2R,3S,4S,5R)-3-(3,4-difluoro-2-methoxyphenyl)-N-(2-(3-(dimethylamino)oxetan-3-yl)pyridin-4-yl)-4,5-dimethyl-5-(trifluoromethyl)tetrahydrofuran-2-carboxamide] has a pIC50 of over 8.00.
Work on `COc1c([C@H]2[C@H](C(=O)Nc3cc(C4(N(C)C)COC4)ncc3F)O[C@@](C)(C(F)(F)F)[C@H]2C)ccc(F)c1F` [Compound 363, (2R,3S,4S,5R)-3-(3,4-difluoro-2-methoxyphenyl)-N-(2-(3-(dimethylamino)oxetan-3-yl)-5-fluoropyridin-4-yl)-4,5-dimethyl-5-(trifluoromethyl)tetrahydrofuran-2-carboxamide] yielded a pIC50 of 7.00 to 8.00.
`COC[C@@H](O)Cc1cc(NC(=O)[C@@H]2O[C@@](C)(C(F)(F)F)[C@@H](C)[C@H]2c2ccc(F)c(F)c2OC)ccn1` [Compound 369, (2R,3S,4S,5R)-3-(3,4-difluoro-2-methoxyphenyl)-N-(2-((S)-2-hydroxy-3-methoxypropyl)pyridin-4-yl)-4,5-dimethyl-5-(trifluoromethyl)tetrahydrofuran-2-carboxamide] gave a pIC50 of over 8.00.
Molecule `COc1c([C@H]2[C@H](C(=O)Nc3c[nH]nn3)O[C@@](C)(C(F)(F)F)[C@H]2C)ccc(F)c1F` [Compound 372, (2R,3S,4S,5R)-3-(3,4-difluoro-2-methoxyphenyl)-4,5-dimethyl-N-(1H-1,2,3-triazol-4-yl)-5-(trifluoromethyl)tetrahydrofuran-2-carboxamide] has a pIC50 of 7.00 to 8.00.
`COc1c([C@H]2[C@H](C(=O)Nc3ccc(C(=O)NC#N)nc3)O[C@@](C)(C(F)(F)F)[C@H]2C)ccc(F)c1F` [Compound 373, N-cyano-5-[[(2R,3S,4S,5R)-3-(3,4-difluoro-2-methoxy-phenyl)-4,5-dimethyl-5-(trifluoromethyl)tetrahydrofuran-2-carbonyl]amino]pyridine-2-carboxamide] gave a pIC50 of 6.00 to 7.00.
`COc1c([C@H]2[C@H](C(=O)Nc3ccc(C(=O)N(C)O)nc3)O[C@@](C)(C(F)(F)F)[C@H]2C)ccc(F)c1F` [Compound 374, 5-[[(2R,3S,4S,5R)-3-(3,4-difluoro-2-methoxy-phenyl)-4,5-dimethyl-5-(trifluoromethyl)tetrahydrofuran-2-carbonyl]amino]-N-hydroxy-N-methyl-pyridine-2-carboxamide] was tested, and the pIC50 was 7.00 to 8.00.
`COc1c([C@H]2[C@H](C(=O)Nc3ccc(C(=O)NS(C)(=O)=O)nc3)O[C@@](C)(C(F)(F)F)[C@H]2C)ccc(F)c1F` [Compound 375, 5-[[(2R,3S,4S,5R)-3-(3,4-difluoro-2-methoxy-phenyl)-4,5-dimethyl-5-(trifluoromethyl)tetrahydrofuran-2-carbonyl]amino]-N-methylsulfonyl-pyridine-2-carboxamide] was tested, and the pIC50 was 6.00 to 7.00.
`COc1c([C@H]2[C@H](C(=O)Nc3ccc(C(=O)N(C)S(C)(=O)=O)nc3)O[C@@](C)(C(F)(F)F)[C@H]2C)ccc(F)c1F` [Compound 376, 5-[[(2R,3S,4S,5R)-3-(3,4-difluoro-2-methoxy-phenyl)-4,5-dimethyl-5-(trifluoromethyl)tetrahydrofuran-2-carbonyl]amino]-N-methyl-N-methylsulfonyl-pyridine-2-carboxamide] was tested, and the pIC50 was 7.00 to 8.00.
`COc1c([C@H]2[C@H](C(=O)Nc3ccnc(C(O)CN(C)C)c3)O[C@@](C)(C(F)(F)F)[C@H]2C)ccc(F)c1F` (stereo partly drawn) [Compound 378, (2R,3S,4S,5R)-3-(3,4-difluoro-2-methoxy-phenyl)-N-[2-[2-(dimethylamino)-1-hydroxy-ethyl]-4-pyridyl]-4,5-dimethyl-5-(trifluoromethyl)tetrahydrofuran-2-carboxamide] gave a pIC50 of over 8.00.
For `COc1c([C@H]2[C@H](C(=O)Nc3ccnc(N4CCN(C)CC4=O)c3)O[C@@](C)(C(F)(F)F)[C@H]2C)ccc(F)c1F` [Compound 379, (2R,3S,4S,5R)-3-(3,4-difluoro-2-methoxyphenyl)-4,5-dimethyl-N-(2-(4-methyl-2-oxopiperazin-1-yl)pyridin-4-yl)-5-(trifluoromethyl)tetrahydrofuran-2-carboxamide], the pIC50 was over 8.00.
With `COc1c([C@H]2[C@H](C(=O)Nc3cncc(S(=O)(=O)N4CCN(C)CC4)c3)O[C@@](C)(C(F)(F)F)[C@H]2C)ccc(F)c1F` [Compound 380, (2R,3S,4S,5R)-3-(3,4-difluoro-2-methoxyphenyl)-4,5-dimethyl-N-(5-((4-methylpiperazin-1-yl)sulfonyl)pyridin-3-yl)-5-(trifluoromethyl)tetrahydrofuran-2-carboxamide] the pIC50 was 7.00 to 8.00.
With `COc1c([C@H]2[C@H](C(=O)Nc3ccnc(CO)n3)O[C@@](C)(C(F)(F)F)[C@H]2C)ccc(F)c1F` [Compound 381, (2R,3S,4S,5R)-3-(3,4-difluoro-2-methoxyphenyl)-N-(2-(hydroxymethyl)pyrimidin-4-yl)-4,5-dimethyl-5-(trifluoromethyl)tetrahydrofuran-2-carboxamide] the pIC50 was 7.00 to 8.00.
`COc1c([C@H]2[C@H](C(=O)Nc3cncc(CO)n3)O[C@@](C)(C(F)(F)F)[C@H]2C)ccc(F)c1F` [Compound 382, (2R,3S,4S,5R)-3-(3,4-difluoro-2-methoxyphenyl)-N-(6-(hydroxymethyl)pyrazin-2-yl)-4,5-dimethyl-5-(trifluoromethyl)tetrahydrofuran-2-carboxamide] showed a pIC50 of 6.00 to 7.00.
`COc1c([C@H]2[C@H](C(=O)Nc3cncc(CO)c3)O[C@@](C)(C(F)(F)F)[C@H]2C)ccc(F)c1F` [Compound 383, (2R,3S,4S,5R)-3-(3,4-difluoro-2-methoxyphenyl)-N-(5-(hydroxymethyl)pyridin-3-yl)-4,5-dimethyl-5-(trifluoromethyl)tetrahydrofuran-2-carboxamide] showed a pIC50 of 7.00 to 8.00.
`COc1c([C@H]2[C@H](C(=O)Nc3cnnc(N4C(=O)CN(C)C[C@H]4C)c3)O[C@@](C)(C(F)(F)F)[C@H]2C)ccc(F)c1F` [Compound 384, (2R,3S,4S,5R)-3-(3,4-difluoro-2-methoxyphenyl)-N-(6-((R)-2,4-dimethyl-6-oxopiperazin-1-yl)pyridazin-4-yl)-4,5-dimethyl-5-(trifluoromethyl)tetrahydrofuran-2-carboxamide] showed a pIC50 of over 8.00.
`COc1c([C@H]2[C@H](C(=O)Nc3ccnc(CCO)c3)O[C@@](C)(C(F)(F)F)[C@H]2C)ccc(F)c1F` [Compound 385, (2R,3S,4S,5R)-3-(3,4-difluoro-2-methoxyphenyl)-N-(2-(2-hydroxyethyl)pyridin-4-yl)-4,5-dimethyl-5-(trifluoromethyl)tetrahydrofuran-2-carboxamide] was tested, and the pIC50 was over 8.00.
For `COc1c([C@H]2[C@H](C(=O)Nc3ccnc(CN4CCC[C@H]4CO)c3)O[C@@](C)(C(F)(F)F)[C@H]2C)ccc(F)c1F` [Compound 386, (2R,3S,4S,5R)-3-(3,4-difluoro-2-methoxyphenyl)-N-(2-(((S)-2-(hydroxymethyl)pyrrolidin-1-yl)methyl)pyridin-4-yl)-4,5-dimethyl-5-(trifluoromethyl)tetrahydrofuran-2-carboxamide], the pIC50 was over 8.00.
`CNc1cc(NC(=O)[C@@H]2O[C@@](C)(C(F)(F)F)[C@@H](C)[C@H]2c2ccc(F)c(F)c2OC)ccn1` [Compound 387, (2R,3S,4S,5R)-3-(3,4-difluoro-2-methoxyphenyl)-4,5-dimethyl-N-(2-(methylamino)pyridin-4-yl)-5-(trifluoromethyl)tetrahydrofuran-2-carboxamide] showed a pIC50 of 7.00 to 8.00.
Molecule `COc1c([C@H]2[C@H](C(=O)Nc3cnc4nncn4c3)O[C@@](C)(C(F)(F)F)[C@H]2C)ccc(F)c1F` [Compound 388, (2R,3S,4S,5R)-N-([1,2,4]triazolo[4,3-a]pyrimidin-6-yl)-3-(3,4-difluoro-2-methoxyphenyl)-4,5-dimethyl-5-(trifluoromethyl)tetrahydrofuran-2-carboxamide] has a pIC50 of 7.00 to 8.00.
`COc1c([C@H]2[C@H](C(=O)Nc3cc(C(C)(C)O)ncn3)O[C@@](C)(C(F)(F)F)[C@H]2C)ccc(F)c1F` [Compound 389, (2R,3S,4S,5R)-3-(3,4-difluoro-2-methoxy-phenyl)-N-[6-(1-hydroxy-1-methyl-ethyl)pyrimidin-4-yl]-4,5-dimethyl-5-(trifluoromethyl)tetrahydrofuran-2-carboxamide] was tested, and the pIC50 was 7.00 to 8.00.
Molecule `COc1c([C@H]2[C@H](C(=O)Nc3cnc(C(C)(C)O)nc3)O[C@@](C)(C(F)(F)F)[C@H]2C)ccc(F)c1F` [Compound 390, (2R,3S,4S,5R)-3-(3,4-difluoro-2-methoxyphenyl)-N-(2-(2-hydroxypropan-2-yl)pyrimidin-5-yl)-4,5-dimethyl-5-(trifluoromethyl)tetrahydrofuran-2-carboxamide] has a pIC50 of 7.00 to 8.00.
In the case of `COc1c([C@H]2[C@H](C(=O)Nc3ccc(N4CCN(C)CC4=O)nc3)O[C@@](C)(C(F)(F)F)[C@H]2C)ccc(F)c1F` [Compound 391, (2R,3S,4S,5R)-3-(3,4-difluoro-2-methoxyphenyl)-4,5-dimethyl-N-(6-(4-methyl-2-oxopiperazin-1-yl)pyridin-3-yl)-5-(trifluoromethyl)-tetrahydrofuran-2-carboxamide], the pIC50 was 6.00 to 7.00.
With `COc1c([C@H]2[C@H](C(=O)Nc3ccc(CC4CCOC4)nc3)O[C@@](C)(C(F)(F)F)[C@H]2C)ccc(F)c1F` (stereo partly drawn) [Compound 392, (2R,3S,4S,5R)-3-(3,4-difluoro-2-methoxyphenyl)-4,5-dimethyl-N-(6-((tetrahydrofuran-3-yl)methyl)pyridin-3-yl)-5-(trifluoromethyl)-tetrahydrofuran-2-carboxamide] the pIC50 was 6.00 to 7.00.
Work on `COc1c([C@H]2[C@H](C(=O)Nc3ccc(-c4nc(C)no4)nc3)O[C@@](C)(C(F)(F)F)[C@H]2C)ccc(F)c1F` [Compound 393, (2R,3S,4S,5R)-3-(3,4-difluoro-2-methoxyphenyl)-4,5-dimethyl-N-(6-(3-methyl-1,2,4-oxadiazol-5-yl)pyridin-3-yl)-5-(trifluoromethyl)-tetrahydrofuran-2-carboxamide] yielded a pIC50 of 6.00 to 7.00.
